“And” between values parts separate entries of the source, which are not always exact repeats. Equal entries are not always repeated.
Legend:
[1] = Particle size distribution by laser diffraction (LD); assay type: physicochemical; settings: bulk CoQ10 powder
Protocol: Bulk CoQ10 powder was dispersed in 20% (v/v) 1,3-propanediol in deionized water for analysis of particle size distribution. This dispersed sample was then added to a small cell apparatus in a Malvern Mastersizer S® instrument (Malvern Instruments, Worcestershire, UK) equipped with a 300 mm lens until 5-10% obscuration was attained. The internal phase and dispersant refractive indexes were 1.45 and 1.33, respectively.
Particle size distribution testing of the dispersed formulations was performed with LD using a wet sample dispersion unit stirring at 1,000 rpm coupled to a Malvern Spraytec® (Malvern Instruments, Worcestershire, UK) equipped with a 300 mm lens. The dispersed formulations were added to distilled water (dispersant) until approximately 5% laser obscuration was attained. The internal phase and dispersant refractive indexes were set as 1.45 and 1.33, respectively. […] Span is a measurement of particle size distribution calculated as [Dv(90)−[…]]/Dv(50)]. […]
Particle size distribution testing of the dispersed formulations was performed with LD using a wet sample dispersion unit stirring at 1,000 rpm coupled to a Malvern Spraytec® (Malvern Instruments, Worcestershire, UK) equipped with a 300 mm lens. […] Span is the measurement of particle size distribution calculated as [Dv(90)−Dv(10)]/Dv(50)]. […]

[2] = CoQ10 level in lung tissue after nose-only aerosol dosing; assay type: in vivo, mice
Protocol: (§1) Animals were caged in groups of 4 and maintained on a normal rodent chow diet with free access to water. Prior to dosing, CD-1® IGS ICR mice (Charles River Laboratories International, Inc., Wilmington, Mass., USA) were individually acclimatized for approximately 10 minutes per day for 3 days into restraint tubes, restricted by an anterior nose insert and a posterior holder. The dosing apparatus was placed inside a fume hood to collect escaping aerosol containing drug. To avoid influence from the airflow provided by the fume hood, an erlenmeyer container was placed at the end of the tubing system as a buffer. The airflow rate was set to 1 L/min to ensure proper drug aerosolization into the nose-only chamber (internal volume: 230 mL; diameter: 3.8 cm; length: 20.3 cm) using an Aeroneb Pro® vibrating-mesh nebulizer (Aerogen, Galway, Ireland). Following preparation, all formulations (saline control, DMPC, DPPC, and DSPC) were dosed for 15 minutes to mice weighing from 23 to 33 g each, at time of dosing. Each single-dose studied group consisted of thirty-six male animals. At each time point (0.5, 1, 3, 8, 24, and 48 hours after the end of the aerosolization event) six animals randomly selected from different dosing events of the same formulation were sacrificed by narcosis with carbon dioxide. As part of the collection process, blood was withdrawn by cardiac puncture, lungs were harvested, and a nasal wash was performed. […]
For each experiment, CoQ10 levels were determined after liquid extraction using liquid chromatography coupled with tandem mass spectrometry (LC-MS/MS). […]
Samples were tested for normality using the Shapiro Wilk test (p<0.05) and outliers were excluded from data analysis. Pharmacokinetic parameters were determined using Microsoft Office Excel 2007 software (Redmond, Wash.) with the add-in program PKSolver. […] At each time point, lung tissue samples were analyzed for statistical differences among different groups with One-Way ANOVA for significance (p<0.05). […]

mice = experiment: Survival and health of mice after nebulization event; assay type: in vivo; settings: 48 hours after the end of the nebulization event
Protocol: as §1, with “dioxide.” for “dioxide. As part of the collection process, blood was withdrawn by cardiac puncture, lungs were harvested, and a nasal wash was performed.”

IL-12 = experiment: Inflammatory response: BAL supernatant ELISA for IL-12; assay type: in vivo, mice; settings: pulmonary administration
Protocol: The inflammatory response to the administration of hydrophobic bioactive agents (e.g., as discussed in connection with Example 1-3 above) was measured. Surgery is performed on sacrificed mice to expose the pleural cavity and trachea at the throat. […] An aliquot (about 0.75 mL) of phosphate buffered saline is instilled through the cannula into the lungs and removed to wash the bronchial and alveolar surfaces. This process is repeated for a total of three washes. The phosphate buffered saline containing cells is placed into centrifuge vials and centrifuged at about 3000 rpm (MiniSpin Plus, Eppendorf International, Hamburg, Del.). The supernatant is removed leaving the collected cells in the pellet. The supernatant from the BAL (Bronchoalveolar Lavage) is analyzed by enzyme-linked immunosorbent assay (ELISA) for IL-12 elevation (n=2 per sample tested).

[3] = Drug loading suitable for continuous nebulization (Example 5); assay type: physicochemical; settings: 15-minute nebulization, Aeroneb Pro, DMPC 2.5% w/w
Protocol: Formulations were prepared based upon the general methods discussed in connection with Examples 1 and 2. For this study, specific dispersions were prepared with 50 microfluidization discrete passes using 2.5% w/w of dimyristoyl phosphatidylcholine (DMPC) and 7.5%, 7.0%, 6.0%, 5.0%, or 4.0% w/w of CoQ10. The dispersions were then aerosolized within 24 hour using an Aeroneb Pro® nebulizer for 15 minute aerosolization event. The aerosolization profile was monitored via analysis of Total Aerosol Output (TAO) and using laser diffraction with a Malvern Spraytec® coupled with an inhalation cell as described above.

[4] = previous studies, same nebulizer

With `COC1=C(OC)C(=O)C(C/C=C(\C)CC/C=C(\C)CC/C=C(\C)CC/C=C(\C)CC/C=C(\C)CC/C=C(\C)CC/C=C(\C)CC/C=C(\C)CC/C=C(\C)CCC=C(C)C)=C(C)C1=O` [CoQ10, Coenzyme Q10] the “Dv(50) / particle size” value [1] was 30 μm and 29.87 μm, the “time CoQ10 stays in the lungs at relatively high concentrations” value ([2]; after 15-minute aerosol dosing) was “up to 48 hours” and the “lung Cmax relative to cyclosporine A dispersions” value [2, 4] was at most 75 fold. For the same compound, the “lung Cmax relative to itraconazole dispersions” value [2, 4] was at most 165 fold, the “survival and health of mice” value (mice) was “all mice were alive and presenting healthy signs” and the “IL-12 levels in BAL supernatant” value (IL-12; ELISA) was “not associated with a rise in IL-12 levels”. The lung inflammation (IL-12) was “does not cause lung inflammation” and the “maximum nominal drug loading without intermittent mist” value [3] was 4 % w/w.
